Assay results from patent publication US7582638B2, “Pyrazole-isoquinoline urea derivatives as p38 kinase inhibitors” (Eli Lilly and Company, priority 2005, dated 2009).

What was measured:
TNFα [1] = assay: Inhibition of TNFα in vitro (LPS/interferon-γ treated mouse peritoneal macrophages, Luminex); format: cell-based; conditions: Peritoneal macrophage, LPS 50 ng/mL and interferon-γ 10 U/mL, 18 hours, read-out: IC50, suppression of TNFα in vitro
Description: 1 mL thioglycolate broth (5.0 g yeast extract, 15.0 g casitone or trypticase, 5.0 g dextrose, 2.5 g sodium chloride, 0.75 g L-cystine, 0.5 g sodium thioglycolate, 1.0 mg resazurin, and 0.75 g agar in 1.0 L distilled water) are injected into the peritoneal cavity of Balb/C female mice. At day 4 or 5 post-injection the mice are sacrificed and then injected i.p. with 4 mL RPMI-1640 medium (BioWhittaker) and the peritoneal macrophages are withdrawn by syringe.
Mouse peritoneal macrophages are counted with a hemocytometer and adjusted to 5×10^5 cells/well in 96-well plates in RPMI-1640 medium with 10% fetal bovine serum. 200 μL/well is plated in 96-well plates and the cells allowed to settle and adhere to the bottom of the well for at least 3 hours. The test compound or standard p38 kinase inhibitor is pre-treated using a series of 8 concentrations for 1 hour at 37° C. […]
50 μL of cytokine detection antibody is added and incubated for 60 seconds at room temperature on a shaker protected from light at setting 6 and then for 30 minutes at setting 3.3 washes are performed with the Bio-Plex Wash Buffer. […] Standards and samples are read on a Luminex machine. These intensity readings are then converted to picogram/milliliter units based on a 12-point standard curve created in duplicate using a four-parameter logistic regression method (Bio-Plex Manager 2.0, Bio-Rad), and the IC50 calculated. […]

Oral exposure = format: in vivo; conditions: rat, 1 mg/kg, male Fischer 344 rats, fasted, gavage, suspension 1 mg/mL at 1 mL/kg, plasma
Description: Compounds are screened for oral exposure in male Fischer 344 rats. Animals are fasted overnight and administered test compounds prepared as suspensions in sodium carboxymethylcellulose (1% w/v) containing Tween 80 (0.25% v/v) and antifoam (0.1% w/v). Dose suspensions are prepared at 1 mg/mL and administered at 1 mL/kg by gavage. Blood samples are taken between 0.5 h and 7 h after dose administration and plasma are prepared by centrifugation. Plasma samples are analyzed using online solid phase extraction and LC/MS/MS.

TNFα [2] = assay: Effect on intra-articular LPS induced TNFα (synovial lavage fluid); format: in vivo; conditions: female Lewis rats, oral, intra-articular LPS 10 μg one hour later, lavage after two hours
Description: Intra-articular injection of LPS into rat ankles induces the synthesis of TNFα, which can be measured in synovial lavage fluid. High levels of TNFα are detectable within 2 hours. Since the joint is the site where arthritis develops, this model can rapidly determine whether an orally administered compound has an effect on an inflammatory response in the synovium.
Six female Lewis rats (150-200 g) are place in each treatment group. The animals are given vehicle (1% NaCarboxylnethylcellulose-0.25% Tween 80) or test compound (1 mg/kg, 3 mg/kg, 10 mg/kg, and 30 mg/kg) orally. One hour later, 10 μl LPS (10 μg) is administered intra-articularly into the right ankle of each rat, while the left ankle receives 10 μL of saline. After two hours, each ankle is lavaged with 100 μL of saline. The lavage is collected and stored at −80° C. • Group#1: Vehicle (1%/NaCMC-0.25% Tween 80, 1 mL, PO) • Group#2: Test compound (1 mg/kg, 1 mL, PO) • Group#3: Test compound (3 mg/kg, 1 mL, PO) • Group#4: Test compound (10 mg/kg, 1 mL, PO) • Group#5: Test compound (30 mg/kg, 1 mL, PO)
TNFα is measured with a commercially available ELISA kit (R&D, RTA00).

CS(=O)(=O)O.Cc1ccc(-n2nc(C3(C)CC3)cc2NC(=O)Nc2cnc(OC3CCN(C(=O)C4(C)CC4)CC3)c3ccccc23)cc1 [Example 12, 1-{1-[1-(1-Methyl-cyclopropanecarbonyl)-piperidin-4-yloxy]-isoquinolin-4-yl}-3-[5-(1-methyl-cyclopropyl)-2-p-tolyl-2H-pyrazol-3-yl]-urea mesylate]
IC50 (TNFα [1]): < 9 nM
Cmax (Oral exposure): 9390 ng/mL
AUC(0-t) (Oral exposure; read-out: AUC (0-7 h)): 36800 ng·h/mL
TMED50, inhibition of TNFα synthesis in the synovial lavage fluid (TNFα [2]): 2.54 mg/kg
